{"source": "patent US20240075184A1", "about": "“BIODEGRADABLE IMPLANTS WITH ANTICORROSIVE COATINGS” (University of Georgia Research Foundation, Inc., priority 2021, published 2024)", "origin": "cited, not measured here", "key": {"[1]": {"details": "0.4 M in corrosion solution, high-purity Mg"}, "[2]": {"details": "0.4 M in corrosion solution, Mg alloy AZ31"}}, "note": "Read-outs that look alike come from different tables or passages of the source."}
{"smiles": "O=C1C=C(O)C(=O)c2ccccc21", "note": "[Lawsone, 2-hydroxy-1,4-napthoquinone]", "values": [{"measurement": "inhibition efficiency", "setting": "[1]", "result": 97, "unit": "%"}, {"measurement": "inhibition efficiency", "setting": "[2]", "result": 90, "unit": "%"}]}
